Results published in US6977262B2, “Dihydropyrazolopyridine compounds and pharmaceutical use thereof” (Mitsubishi Pharma Corporation, priority 2001, dated 2005).

Row | Structure (SMILES) | melting point [°C]
1 | Cc1ccsc1C1=C(C#N)C(c2cccc3nonc23)c2c[nH]nc2N1 (stereo not shown) [Example 292, 4-(2,1,3-Benzoxadiazol-4-yl)-5-cyano-4,7-dihydro-6-(3-methylthiophen-2-yl)-2H-pyrazolo[3,4-b]pyridine] | 202
2 | COCn1cc(C2=C(C#N)C(c3cccc4nonc34)c3c[nH]nc3N2)c2ccccc21 (stereo not shown) [Example 293, 4-(2,1,3-Benzoxadiazol-4-yl)-5-cyano-4,7-dihydro-6-(1-methoxymethylindol-3-yl)-2H-pyrazolo[3,4-b]pyridine] | 200
3 | CCCC1=C(C#N)C(c2ccccc2Cl)c2c(n[nH]c2-c2cccs2)N1 (stereo not shown) [Example 294, 4-(2-Chlorophenyl)-5-cyano-4,7-dihydro-6-propyl-3-(thiophen-2-yl)-2H-pyrazolo[3,4-b]pyridine] | 256
4 | CCCC1=C(C#N)C(c2ccccc2Cl)c2c(n[nH]c2-c2ccco2)N1 (stereo not shown) [Example 295, 4-(2-Chlorophenyl)-5-cyano-4,7-dihydro-3-(furan-2-yl)-6-propyl-2H-pyrazolo[3,4-b]pyridine] | 253
5 | CCCC1=C(C#N)C(c2ccccc2Cl)c2c(n[nH]c2-c2ccccc2OC)N1 (stereo not shown) [Example 296, 4-(2-Chlorophenyl)-5-cyano-4,7-dihydro-3-(2-methoxyphenyl)-6-propyl-2H-pyrazolo[3,4-b]pyridine] | > 270
6 | CCCC1=C(C#N)C(c2ccccc2Cl)c2c(n[nH]c2-c2cccc(OC)c2)N1 (stereo not shown) [Example 297, 4-(2-Chlorophenyl)-5-cyano-4,7-dihydro-3-(3-methoxyphenyl)-6-propyl-2H-pyrazolo[3,4-b]pyridine] | 239
7 | N#CC1=C(c2ccc(Cl)s2)Nc2n[nH]cc2C1c1cccc2nonc12 (stereo not shown) [Example 298, 4-(2,1,3-Benzoxadiazol-4-yl)-6-(2-chlorothiophen-5-yl)-5-cyano-4,7-dihydro-2H-pyrazolo[3,4-b]pyridine] | 210
8 | Cc1ccc(C2=C(C#N)C(c3cccc4nonc34)c3c[nH]nc3N2)s1 (stereo not shown) [Example 299, 4-(2,1,3-Benzoxadiazol-4-yl)-5-cyano-4,7-dihydro-6-(2-methylthiophen-5-yl)-2H-pyrazolo[3,4-b]pyridine] | 192
9 | CCCC1=C(C#N)C(c2ccccc2Cl)c2c(n[nH]c2-c2cccc3ccccc23)N1 (stereo not shown) [Example 300, 4-(2-Chlorophenyl)-5-cyano-4,7-dihydro-3-(naphthalen-1-yl)-6-propyl-2H-pyrazolo[3,4-b]pyridine] | 254
10 | CCCC1=C(C#N)C(c2ccccc2Cl)c2c(n[nH]c2-c2ccc3ccccc3c2)N1 (stereo not shown) [Example 301, 4-(2-Chlorophenyl)-5-cyano-4,7-dihydro-3-(naphthalen-2-yl)-6-propyl-2H-pyrazolo[3,4-b]pyridine] | > 270
11 | CCCC1=C(C#N)C(c2ccccc2Cl)c2c(n[nH]c2CCC)N1 (stereo not shown) [Example 302, 4-(2-Chlorophenyl)-5-cyano-4,7-dihydro-3,6-dipropyl-2H-pyrazolo[3,4-b]pyridine] | 237
12 | CCCCc1[nH]nc2c1C(c1ccccc1Cl)C(C#N)=C(CCC)N2 (stereo not shown) [Example 304, 3-Butyl-4-(2-chlorophenyl)-5-cyano-4,7-dihydro-6-propyl-2H-pyrazolo[3,4-b]pyridine] | 212
13 | N#CC1=C(c2cc3ccccc3s2)Nc2n[nH]cc2C1c1cccc2nonc12 (stereo not shown) [Example 305, 4-(2,1,3-Benzoxadiazol-4-yl)-6-(benzothiophen-2-yl)-5-cyano-4,7-dihydro-2H-pyrazolo[3,4-b]pyridine] | 220
14 | N#CC1=C(C2CCCCC2)Nc2n[nH]cc2C1c1ccccc1Cl (stereo not shown) [Example 306, 4-(2-Chlorophenyl)-5-cyano-6-cyclohexyl-4,7-dihydro-2H-pyrazolo[3,4-b]pyridine] | 163
15 | CC(C)(C)C1=C(C#N)C(c2ccccc2Cl)c2c[nH]nc2N1 (stereo not shown) [Example 307, 6-t-Butyl-4-(2-chlorophenyl)-5-cyano-4,7-dihydro-2H-pyrazolo[3,4-b]pyridine] | 198
16 | CCCC1=C(C#N)C(c2ccccc2Cl)c2c(n[nH]c2C2CC2)N1 (stereo not shown) [Example 308, 4-(2-Chlorophenyl)-5-cyano-3-cyclopropyl-4,7-dihydro-6-propyl-2H-pyrazolo[3,4-b]pyridine] | 270
17 | CCCC1=C(C#N)C(c2ccccc2Cl)c2c(n[nH]c2CC)N1 (stereo not shown) [Example 309, 4-(2-Chlorophenyl)-5-cyano-4,7-dihydro-3-ethyl-6-propyl-2H-pyrazolo[3,4-b]pyridine] | 269
18 | CCCC1=C(C#N)C(c2ccccc2Cl)c2c(n[nH]c2C(C)(C)C)N1 (stereo not shown) [Example 310, 3-t-Butyl-4-(2-chlorophenyl)-5-cyano-4,7-dihydro-6-propyl-2H-pyrazolo[3,4-b]pyridine] | > 270
19 | CCCC1=C(C#N)C(c2ccccc2Cl)c2c(n[nH]c2C2CCCCC2)N1 (stereo not shown) [Example 311, 4-(2-Chlorophenyl)-5-cyano-3-cyclohexyl-4,7-dihydro-6-propyl-2H-pyrazolo[3,4-b]pyridine] | > 270
20 | N#CC1=C(C2CCCCCC2)Nc2n[nH]cc2C1c1ccccc1Cl (stereo not shown) [Example 312, 4-(2-Chlorophenyl)-5-cyano-6-cycloheptyl-4,7-dihydro-2H-pyrazolo[3,4-b]pyridine] | 146
21 | N#CC1=C(C2CCC2)Nc2n[nH]cc2C1c1ccccc1Cl (stereo not shown) [Example 313, 4-(2-Chlorophenyl)-5-cyano-6-cyclobutyl-4,7-dihydro-2H-pyrazolo[3,4-b]pyridine] | 188
22 | CCCC1=C(C#N)C(c2ccccc2Cl)c2c(n[nH]c2C2CCCC2)N1 (stereo not shown) [Example 314, 4-(2-Chlorophenyl)-5-cyano-3-cyclopentyl-4,7-dihydro-6-propyl-2H-pyrazolo[3,4-b]pyridine] | > 270
23 | CCCC1=C(C#N)C(c2ccccc2Cl)c2c(n[nH]c2C(C)C)N1 (stereo not shown) [Example 315, 4-(2-Chlorophenyl)-5-cyano-4,7-dihydro-6-propyl-3-isopropyl-2H-pyrazolo[3,4-b]pyridine] | > 270
24 | N#CC1=C(C2CCCC2)Nc2n[nH]cc2C1c1ccccc1Cl (stereo not shown) [Example 316, 4-(2-Chlorophenyl)-5-cyano-6-cyclopentyl-4,7-dihydro-2H-pyrazolo[3,4-b]pyridine] | 225
25 | N#CC1=C(C2CCCC2)Nc2n[nH]cc2C1c1cccc(C#N)c1Br (stereo not shown) [Example 317, 4-(2-Bromo-3-cyanophenyl)-5-cyano-6-cyclopentyl-4,7-dihydro-2H-pyrazolo[3,4-b]pyridine] | 247
26 | N#CC1=C(C2CCCC2)Nc2n[nH]cc2C1c1cccc2nonc12 (stereo not shown) [Example 318, 4-(2,1,3-Benzoxadiazol-4-yl)-5-cyano-6-cyclopentyl-4,7-dihydro-2H-pyrazolo[3,4-b]pyridine] | 193
27 | CC(C)(C)C1=C(C#N)C(c2cccc(C#N)c2Br)c2c[nH]nc2N1 (stereo not shown) [Example 319, 4-(2-Bromo-3-cyanophenyl)-6-t-butyl-5-cyano-4,7-dihydro-2H-pyrazolo[3,4-b]pyridine] | 251
28 | CC(C)(C)C1=C(C#N)C(c2cccc3nonc23)c2c[nH]nc2N1 (stereo not shown) [Example 320, 4-(2,1,3-Benzoxadiazol-4-yl)-6-t-butyl-5-cyano-4,7-dihydro-2H-pyrazolo[3,4-b]pyridine] | 204
